Experimental data as given in publication PMC10920890, “Biosensor and machine learning-aided engineering of an amaryllidaceae enzyme” (Nature Communications, 2024).

Target: RamR (Salmonella enterica, UniProt Q8ZR43, K63T/L66M/C134D/S137G)
Details: variant 4NB2.1 (4NB2); LB medium, 37 °C; whole-cell biosensor

Chain of RamR (Q8ZR43 whole entry K63T/L66M/C134D/S137G): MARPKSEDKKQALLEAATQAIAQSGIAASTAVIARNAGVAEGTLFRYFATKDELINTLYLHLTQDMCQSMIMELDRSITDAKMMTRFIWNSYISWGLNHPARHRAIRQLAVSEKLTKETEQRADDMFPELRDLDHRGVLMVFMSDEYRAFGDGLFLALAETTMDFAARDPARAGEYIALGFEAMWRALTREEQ

In the case of COc1ccc(CNCCc2ccc(O)cc2)cc1O [4′-O-methylnorbelladine], the EC50 is reported as 20 µM.
